Source: patent publication US9464308B2, “Method for transcriptional amplification of nucleic acids combining steps of different temperatures” (priority 2011, dated 2016)
Read-outs that look alike come from different tables or passages of the source.

What was measured:
T7 RNA polymerase [1] = target: T1, T7 RNA polymerase (Escherichia phage T7, UniProt P00573); assay: Thermal denaturation of T7 RNA polymerase (T7 Tm) by UV spectrophotometry; assay type: physicochemical; conditions: for ΔTm: T7 RNA polymerase at 0.05 mg/ml, PBS 150 mM pH 7.5, versus control without additive (T7 Tm 48.5° C.), Sorbitol 1M, Sucrose 1M, Lactose 0.35M, Raffmose 0.085M, D-Turanose 0.15M; for denaturation temperature of the enzyme (in words): heating T7 RNA polymerase in the presence of the additive
T1 construct: purchased bioMérieux, Marcy l'Etoile, France
T1 sequence (P00573 whole entry): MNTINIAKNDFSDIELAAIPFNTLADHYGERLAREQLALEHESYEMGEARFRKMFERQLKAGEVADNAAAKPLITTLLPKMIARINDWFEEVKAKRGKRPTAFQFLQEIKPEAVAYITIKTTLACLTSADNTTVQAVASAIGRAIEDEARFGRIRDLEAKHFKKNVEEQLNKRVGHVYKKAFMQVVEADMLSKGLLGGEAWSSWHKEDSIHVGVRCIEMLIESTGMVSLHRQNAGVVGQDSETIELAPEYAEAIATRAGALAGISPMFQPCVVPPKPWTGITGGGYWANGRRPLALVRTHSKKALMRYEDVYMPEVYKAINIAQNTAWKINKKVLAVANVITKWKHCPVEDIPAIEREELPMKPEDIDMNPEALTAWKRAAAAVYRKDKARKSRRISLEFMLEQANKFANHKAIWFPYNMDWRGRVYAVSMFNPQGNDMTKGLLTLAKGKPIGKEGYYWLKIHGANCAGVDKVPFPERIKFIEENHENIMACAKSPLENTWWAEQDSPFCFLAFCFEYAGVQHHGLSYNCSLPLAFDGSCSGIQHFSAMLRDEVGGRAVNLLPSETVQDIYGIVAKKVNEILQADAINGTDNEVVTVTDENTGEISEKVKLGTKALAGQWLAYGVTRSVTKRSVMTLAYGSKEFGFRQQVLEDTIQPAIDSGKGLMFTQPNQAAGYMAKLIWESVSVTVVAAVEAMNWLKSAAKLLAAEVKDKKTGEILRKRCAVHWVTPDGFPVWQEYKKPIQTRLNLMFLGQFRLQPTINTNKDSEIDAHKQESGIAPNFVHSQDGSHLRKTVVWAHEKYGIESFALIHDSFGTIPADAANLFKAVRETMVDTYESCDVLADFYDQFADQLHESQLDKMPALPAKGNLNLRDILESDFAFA
Protocol: T7 RNA polymerase was chosen as model enzyme since it is the most sensitive to thermal denaturation; the T7 Tm without additive is 48.5° C.
A UV spectrophotometry technique is used to measure the T7 Tm values. The change in the absorbance of the protein at λ=280 nm as a function of temperature is measured. When the enzyme is heated, the solution becomes cloudy, and aggregates form which correspond to the denatured form. The Tm corresponds to the temperature for which there is 50% of native form and 50% of denatured form (first derivative of the curve absorbance=f(temperature)).
In a polypropylene flask, 4 ml of 300 mM PBS phosphate buffer (Aldrich P-4417, St Quentin Fallavier, France) are mixed with 12μl of T7 RNA polymerase enzyme (bioMérieux, Marcy l'Etoile, France) at 17 mg/ml, i.e. a final protein concentration of 0.05 mg/ml. 500 μl of T7 RNA polymerase solution at 0.05 mg/ml and 500 μl of a concentrated solution of additives (Aldrich, St Quentin Fallavier, France) or of 300 mM PBS for the control are then placed in a quartz cuvette for UV spectrophotometry. After homogenization, the change in absorbance at λ=280 nm is measured as a function of temperature, between 30 and 65° C. at 1° C./min, in order to determine the T7 Tm as previously described (Cary UV spectrophotometer, Varian, Les Ulis, France).

T7 RNA polymerase [2] = target: T1, T7 RNA polymerase; assay: Thermostability (T1/2) at 46° C. of T7 RNA polymerase activity; assay type: biochemical; conditions: environment specific to NASBA, sorbitol 1.48 M
Protocol: In this example, the values of T1/2 of T7 RNA polymerase are determined in the presence or absence of polyols. A description of the measurement method is given below, as are the various reagents used.
Mix buffers B, C and D according to the following proportions with the following Nuclisens™ HIV-1 2.0 reagents (ref.: 285033, bioMérieux, Marcy l'Etoile, France) (for eight reactions): • 36.08 μl buffer A • 6.32 μl buffer B • 25.36 μl buffer C • 173.6 μl buffer D • eight “Nuclisens™ HIV-1 2.0 accusphere reagent” • 960 μl of “Nuclisens™ HIV-1 2.0 diluent reagent”. […]
• 1. The enzymes to be evaluated are diluted in such a way as to have a volumetric activity of 109 kU/ml. • 2. A volume of 20 μl of the enzyme to be evaluated is diluted in 840 μl of solution W1. • 3. 114 μl of the compound to be evaluated are then added to 193.5 μl of enzymatic mix described in point 2 above. • 4. […] 20 μl of solution S are added to 5 n1 of this preincubated mixture in order to measure the rate of increase in fluorescence between 5 and 10 minutes, associated with the residual activity of the enzyme. • 6. […]

HIV-1 type B transcript [3] = assay: NASBA HIV-1 2.0 amplification test at 46° C., functional screening of thermostabilizing compounds; assay type: biochemical; conditions: 7.5 cps/reaction HIV-1B transcript, lactose 0.21 M, sorbitol 1.2 M, sucrose 0.6 M
Protocol: The FIG. 1 represent the functional screening of thermostabilizing compounds during NASBA amplifications at 46° C. in the presence of 7.5 cps/reaction of HIV-1B transcript (seven replicas per screening), with in:
A set of compounds with thermostabilizing properties or assumed to have such properties was evaluated in a NASBA HIV-1 2.0 amplification test on a Nuclisens EasyQ™ amplification platform (bioMérieux, Marcy l'Etoile, France) according to the supplier's recommendations. 5 cps to 30 cps of an HIV-1 type B transcript were used as target in each reaction in the presence or absence of the compound to be evaluated.
The obtaining of an amplification in the presence of the compound at a temperature of 46° C. makes it possible to validate the compound as compatible and thermostabilizing for the NASBA reaction.

T7 RNA polymerase [4] = target: T1, T7 RNA polymerase; assay: Maximum preincubation temperature preserving T7 RNA polymerase activity (3 min preincubation); assay type: biochemical; conditions: 1.4 M sorbitol
Protocol: FIG. 2 describes the residual activity (%) of T7 RNA polymerase after 3 minutes of preincubation at various temperatures and in the presence of various thermostabilizing compounds.
In this example, the maximum temperature that the T7 RNA polymerase could withstand for a preincubation of 3 minutes in the presence of thermostabilizing compounds is determined.
This step can be likened to a target predenaturation or preincubation phase. The protocol used in this example is similar to that of example 2, with the exception of the fact that the temperatures are variable and that the preincubation time was fixed at 3 minutes.

HIV-1 type B transcript [5] = assay: Sensitivity of NASBA detection at 46° C. without target denaturation phase; assay type: biochemical; conditions: HIV-1 type B transcript at 5 cps/test, no target denaturation phase, N=24
Text: FIG. 4 gives the measurement of the sensitivity (%) obtained in the presence of various thermostabilizing compounds during an HIV-1 type B NASBA amplification at 5 cps/test and without target denaturation phase (N=24).
The objective of this is to simplify the method by virtue of the simultaneous addition of the targets to the enzyme and amplification reagent mixes.
A Nuclisens™ HIV-1 2.0 amplification kit (ref.: 285033, bioMérieux, Marcy l'Etoile, France) was used to carry out the amplification experiments in the presence of trehalose, sucrose or sorbitol at the detection limit with an HIV-1 type B transcript at 5 cps/test. Each amplification is replicated 24 times in order to estimate the sensitivity of the test in the presence of thermostabilizing compounds at 46° C.
The sensitivity is expressed as percentage of positive signals determined by the EasyQ™ analysis system, relative to the total number of replicates.

RNAse H = assay: Residual RNAse H activity after preincubation at various temperatures, with or without 0.4 M trehalose; assay type: biochemical; conditions: 25 minutes of preincubation at various temperatures
Protocol: FIG. 3B describes the residual activity of RNAse H after 25 minutes of preincubation at various temperatures, with or without 0.4 M trehalose.
(§1) Description of the method for measuring the T7 RNA polymerase, RNAse H and AMV-RT activities for example 5: • 1. The T7 RNA polymerase, RNAse H and AMV-RT enzymes are used at volumetric activities of 109 kU/ml, 1 kU/ml and 25 kU/ml respectively. • 2. The T7 RNA polymerase, RNAse H and AMV-RT enzymes are diluted in the solution W1 of example 3 according to the ratios 1/43, 2/191 and 2/27 respectively, in order to mimic the physicochemical environment of the NASBA reaction. • 3. […] The residual activity of each of the T7 RNA polymerase, RNAse H or AMV-RT activities is then measured by adding 5 μl of enzymatic solution to 20 μl of solution S containing the reagents corresponding to each of the activities measured. […]
(§2) • 6. The residual activity of each mutant is expressed as percentage of the fraction of enzyme having not been preincubated and corresponding to 100% activity according to the following calculation: • ρN=slope obtained between 5 and 10 min for the enzyme not preincubated, • ρT=slope obtained between 5 and 10 min for the enzyme preincubated at various temperatures, with or without the presence of the polyol to be studied, and • percentage relative activity=% (ρT/ρN).

AMV-RT = assay: Residual AMV-RT activity after preincubation at various temperatures, with or without 0.4 M trehalose; assay type: biochemical; conditions: 25 minutes of preincubation at various temperatures
Protocol: FIG. 3C describes the residual activity of AMV-RT after 25 minutes of preincubation at various temperatures, with or without 0.4 M trehalose.
as §1, §2

T7 RNA polymerase [6] = target: T1, T7 RNA polymerase; assay: Residual T7 RNA polymerase activity after preincubation at various temperatures, with or without 0.4 M trehalose; assay type: biochemical; conditions: 15 minutes of preincubation at various temperatures
Protocol: FIG. 3A describes the residual activity of T7 RNA polymerase after 15 minutes of preincubation at various temperatures, with or without 0.4 M trehalose.
as §1, §2

[7] = 3 minutes at 48° C., 0.7 M sucrose, 0.4 M trehalose

Compound	ΔTm (T7 RNA polymerase [1]; read-out: ΔTm) [°C]	denaturation temperature of the enzyme (in words) (T7 RNA polymerase [1])	thermostabilizing effect on the T7 RNA polymerase activity (in words) (T7 RNA polymerase [2])	NASBA amplification at 46° C. (positive signals out of seven replicas) (HIV-1 type B transcript [3])	T7 RNA polymerase activity preserved (T7 RNA polymerase [4]; [7]) [%]	other results
O=C(CO)[C@@H](O[C@H]1O[C@H](CO)[C@@H](O)[C@H](O)[C@H]1O)[C@H](O)[C@H](O)CO [D-Turanose]						ΔTm (T7 RNA polymerase [1]): −4.4 °C
OC[C@H]1O[C@@H](O[C@H]2[C@H](O)[C@@H](O)C(O)O[C@@H]2CO)[C@H](O)[C@@H](O)[C@H]1O (stereo partly drawn) [Lactose, lactose]	5.5	very significantly increase the denaturation temperature of the enzyme	weak thermostabilizing power	at least four positive signals out of seven replicas		
OC[C@H]1O[C@H](OC[C@H]2O[C@H](O[C@]3(CO)O[C@H](CO)[C@@H](O)[C@@H]3O)[C@H](O)[C@@H](O)[C@@H]2O)[C@H](O)[C@@H](O)[C@H]1O [Raffmose, raffinose]	0.5					
OC[C@@H](O)[C@@H](O)[C@H](O)[C@@H](O)CO [Sorbitol, sorbitol]	0.9	very significantly increase the denaturation temperature of the enzyme	greatest thermostabilizing effect	at least four positive signals out of seven replicas	100	T7 RNA polymerase activity preserved (T7 RNA polymerase [4]; 3 minutes at 49° C.): 100%; sensitivity (percentage of positive signals relative to total replicates) (HIV-1 type B transcript [5]): 100%
OC[C@H]1O[C@@](CO)(O[C@H]2O[C@H](CO)[C@@H](O)[C@H](O)[C@H]2O)[C@@H](O)[C@@H]1O [Sucrose, sucrose]	5.8	very significantly increase the denaturation temperature of the enzyme		at least four positive signals out of seven replicas	100	
OC[C@H]1O[C@H](O[C@H]2O[C@H](CO)[C@@H](O)[C@H](O)[C@H]2O)[C@H](O)[C@@H](O)[C@@H]1O [Trehalose, trehalose]					100	thermostabilizing effect on RNAse H activity (in words) (RNAse H): thermostabilizing effect; thermostabilizing effect on AMV-RT activity (in words) (AMV-RT): thermostabilizing effect; thermostability of T7 RNA polymerase (in words) (T7 RNA polymerase [6]): makes it possible to render it more thermostable
